# In PMC6835510, “Magnificamide, a β-Defensin-Like Peptide from the Mucus of the Sea Anemone Heteractis magnifica, Is a Strong Inhibitor of Mammalian α-Amylases” (Marine Drugs, 2019):
# Bridge positions count the residues as written; N and C are the ends. Ends that are not written are not given here.
# What was measured:
# hERG = assay: Two-electrode voltage-clamp; format: cell-based, mammalian; details: 10 µM; Xenopus laevis oocytes; 18–22 °C
# Description: (§1) For the expression of Nav channels (mammalian rNav1.2, rNav1.4, hNav1.5, mNav1.6 and hNav1.8 channels; the insect channel BgNav1 from Blattella germanica; and the auxiliary subunits rβ1, hβ1, and TipE) and Kv channels (mammalian rKv1.1, rKv1.2, hKv1.3, rKv1.4, rKv1.5, rKv1.6, rKv2.1, hKv3.1, rKv4.2, hKv10.1, and hERG; and Drosophila Shaker’s IR) in Xenopus laevis oocytes; the linearized plasmids were transcribed using the T7 or SP6 mMESSAGE-mMACHINE transcription kit (Ambion, Carlsbad, CA, USA). The harvesting of stage V–VI oocytes from anesthetized female Xenopus laevis frog was previously described. Oocytes were injected with 50 nL of cRNA at a concentration of 1 ng/nL using a microinjector (Drummond Scientific, Broomall, PA, USA). The oocytes were incubated in a solution containing 96-mM NaCl, 2-mM KCl, 1.8-mM CaCl2, 2-mM MgCl2, and 5-mM HEPES (pH 7.4), supplemented with 50 mg/L gentamycin sulfate.
# (§2) Two-electrode voltage-clamp recordings were performed at room temperature (18–22 °C) using a Geneclamp 500 amplifier (Molecular Devices, Downingtown, PA, USA) controlled by a pClamp data acquisition system (Axon Instruments, Union City, CA, USA). Whole cell currents from oocytes were recorded 1–4 days after injection. The bath solution’s composition was 96-mM NaCl, 2-mM KCl, 1.8-mM CaCl2, 2-mM MgCl2, and 5-mM HEPES (pH 7.4). Toxins were applied directly to the bath. Resistances of both electrodes were kept between 0.8 and 1.5 MΩ. The elicited currents were sampled at 20 kHz (Nav) or 2 kHz (Kv), filtered at 2 kHz (Nav) or 0.5 kHz (Kv) using a four-pole low-pass Bessel filter. Leak subtraction was performed using a -P/4 protocol. […] For the electrophysiological analysis, a number of protocols were applied from a holding potential of −90 mV with a start-to-start interval of 0.2 Hz. Kv1.1–Kv1.6 and Shaker currents were evoked by 250-ms depolarizations to 0 mV followed by a 250 ms pulse to −50 mV from a holding potential of −90 mV. Current traces of hERG channels were elicited by applying a +40 mV prepulse for 2 s followed by −120 mV for 2 s. Kv2.1, Kv3.1, and Kv4.2 currents were elicited by 250 ms pulses to +20 mV from a holding potential of −90 mV. Kv10.1 currents were evoked by 2-s depolarizing pulses to 0 mV from a holding potential of −90 mV. Sodium current traces were evoked by 100-ms depolarization to the voltage corresponding to maximal sodium current in control conditions. All data were analyzed using pClamp Clampfit 10.0 (Molecular Devices, Downingtown, PA, USA) and Origin 7.5 software (Originlab, Northampton, MA, USA).
# hKv1.3 = assay: Two-electrode voltage-clamp; format: cell-based, mammalian; details: 10 µM; Xenopus laevis oocytes; 18–22 °C
# Description: as §1, §2
# hKv10.1 = assay: Two-electrode voltage-clamp; format: cell-based, mammalian; details: 10 µM; Xenopus laevis oocytes; 18–22 °C
# Description: as §1, §2
# hKv3.1 = assay: Two-electrode voltage-clamp; format: cell-based, mammalian; details: 10 µM; Xenopus laevis oocytes; 18–22 °C
# Description: as §1, §2
# hNav1.5 = assay: Two-electrode voltage-clamp; format: cell-based, mammalian; details: 10 µM; Xenopus laevis oocytes; 18–22 °C
# Description: as §1, §2
# hNav1.8 = assay: Two-electrode voltage-clamp; format: cell-based, mammalian; details: 10 µM; Xenopus laevis oocytes; 18–22 °C
# Description: as §1, §2
# mNav1.6 = assay: Two-electrode voltage-clamp; format: cell-based, mammalian; details: 10 µM; Xenopus laevis oocytes; 18–22 °C
# Description: as §1, §2
# rKv1.1 = assay: Two-electrode voltage-clamp; format: cell-based, mammalian; details: 10 µM; Xenopus laevis oocytes; 18–22 °C
# Description: as §1, §2
# rKv1.2 = assay: Two-electrode voltage-clamp; format: cell-based, mammalian; details: 10 µM; Xenopus laevis oocytes; 18–22 °C
# Description: as §1, §2
# rKv1.4 = assay: Two-electrode voltage-clamp; format: cell-based, mammalian; details: 10 µM; Xenopus laevis oocytes; 18–22 °C
# Description: as §1, §2
# rKv1.5 = assay: Two-electrode voltage-clamp; format: cell-based, mammalian; details: 10 µM; Xenopus laevis oocytes; 18–22 °C
# Description: as §1, §2
# rKv1.6 = assay: Two-electrode voltage-clamp; format: cell-based, mammalian; details: 10 µM; Xenopus laevis oocytes; 18–22 °C
# Description: as §1, §2
# rKv2.1 = assay: Two-electrode voltage-clamp; format: cell-based, mammalian; details: 10 µM; Xenopus laevis oocytes; 18–22 °C
# Description: as §1, §2
# rKv4.2 = assay: Two-electrode voltage-clamp; format: cell-based, mammalian; details: 10 µM; Xenopus laevis oocytes; 18–22 °C
# Description: as §1, §2
# rNav1.2 = assay: Two-electrode voltage-clamp; format: cell-based, mammalian; details: 10 µM; Xenopus laevis oocytes; 18–22 °C
# Description: as §1, §2
# rNav1.4 = assay: Two-electrode voltage-clamp; format: cell-based, mammalian; details: 10 µM; Xenopus laevis oocytes; 18–22 °C
# Description: as §1, §2
# Shaker IR = assay: Two-electrode voltage-clamp; format: cell-based, Drosophila; details: 10 µM; insect channel; Xenopus laevis oocytes; 18–22 °C
# Description: as §1
# Two-electrode voltage-clamp recordings were performed at room temperature (18–22 °C) using a Geneclamp 500 amplifier (Molecular Devices, Downingtown, PA, USA) controlled by a pClamp data acquisition system (Axon Instruments, Union City, CA, USA). Whole cell currents from oocytes were recorded 1–4 days after injection. […] All data were analyzed using pClamp Clampfit 10.0 (Molecular Devices, Downingtown, PA, USA) and Origin 7.5 software (Originlab, Northampton, MA, USA).
# [1] = tested on: 18 subtypes of voltage-gated potassium and voltage-gated sodium channels; assay: Electrophysiological screening, overall; format: cell-based; details: 10 µM, Xenopus laevis oocytes
# Description: as §1
# as §2, with “Current traces of hERG channels were elicited by applying a +40 mV prepulse for 2 s followed by −120 mV for 2 s. Kv2.1, Kv3.1, and Kv4.2 currents were elicited by 250 ms pulses to +20 mV from a holding potential of −90 mV. Kv10.1 currents were evoked by 2-s depolarizing pulses to 0 mV from a holding potential of −90 mV. Sodium current traces were evoked by 100-ms depolarization to the voltage corresponding to maximal sodium current in control conditions.” left out
sequence,measurement,setting,value
"SEGTSCYIYHGVYGICKAKCAEDMKAMAGMGVCEGDLCCYKTPW (disulfide 6-38, 16-33, 20-39) [r-magnificamide]","Channel modulating activity, hERG",hERG,Not active
same,"Channel modulating activity, Kv1.3",hKv1.3,Not active
same,"Channel modulating activity, Kv10.1",hKv10.1,Not active
same,"Channel modulating activity, Kv3.1",hKv3.1,Not active
same,"Channel modulating activity, Nav1.5",hNav1.5,Not active
same,"Channel modulating activity, Nav1.8",hNav1.8,Not active
same,"Channel modulating activity, Nav1.6",mNav1.6,Not active
same,"Channel modulating activity, Kv1.1",rKv1.1,Not active
same,"Channel modulating activity, Kv1.2",rKv1.2,Not active
same,"Channel modulating activity, Kv1.4",rKv1.4,Not active
same,"Channel modulating activity, Kv1.5",rKv1.5,Not active
same,"Channel modulating activity, Kv1.6",rKv1.6,Not active
same,"Channel modulating activity, Kv2.1",rKv2.1,Not active
same,"Channel modulating activity, Kv4.2",rKv4.2,Not active
same,"Channel modulating activity, Nav1.2",rNav1.2,Not active
same,"Channel modulating activity, Nav1.4",rNav1.4,Not active
same,"Channel modulating activity, Shaker",Shaker IR,Not active
same,"Ion channel modulating activity, overall",[1]; listed as r-Magnificamide,did not reveal ion channel modulating activity
same,"Ion channel modulating activity, overall",[1]; listed as recombinant analog of magnificamide,does not show antimicrobial or channel modulating activities
